# Experiments:
# Conditions in all cases: Compound concentration 1000.0 nM
# [1] = target: Ribosomal protein S6 kinase alpha-6 (Homo sapiens) (UniProt Q9UK32)
# [2] = target: Tyrosine-protein kinase JAK2 (Homo sapiens) (UniProt O60674)
# [3] = target: Mitogen-activated protein kinase kinase kinase 15 (Homo sapiens) (UniProt Q6ZN16)
# [4] = tested on: Tyrosine-protein kinase ABL1 (Homo sapiens), P00519 [H396P]
# [5] = target: Serine/threonine-protein kinase PAK 6 (Homo sapiens) (UniProt Q9NQU5)
# [6] = tested on: Epidermal growth factor receptor (Homo sapiens), P00533 [UNDEFINED MUTATION]
# [7] = target: Tyrosine-protein kinase HCK (Homo sapiens) (UniProt P08631)
# [8] = target: Cyclin-dependent kinase-like 5 (Homo sapiens) (UniProt O76039)
# [9] = tested on: Epidermal growth factor receptor (Homo sapiens), P00533 [L861Q]
# [10] = target: Serine/threonine-protein kinase pim-2 (Homo sapiens) (UniProt Q9P1W9)
# [11] = target: Mitogen-activated protein kinase 3 (Homo sapiens) (UniProt P27361)
# [12] = target: Calcium-dependent protein kinase 1 (Plasmodium falciparum) (UniProt P62344)
# [13] = target: Receptor tyrosine-protein kinase erbB-2 (Homo sapiens) (UniProt P04626)
# [14] = target: Serine/threonine-protein kinase LATS2 (Homo sapiens) (UniProt Q9NRM7)
# [15] = target: Cyclin-dependent kinase 9 (Homo sapiens) (UniProt P50750)
# [16] = target: Cyclin-dependent kinase 8 (Homo sapiens) (UniProt P49336)
# [17] = target: Epithelial discoidin domain-containing receptor 1 (Homo sapiens) (UniProt Q08345)
# [18] = target: T1, Ephrin type-A receptor 8 (Homo sapiens) (UniProt P29322)
# T1 sequence (whole entry): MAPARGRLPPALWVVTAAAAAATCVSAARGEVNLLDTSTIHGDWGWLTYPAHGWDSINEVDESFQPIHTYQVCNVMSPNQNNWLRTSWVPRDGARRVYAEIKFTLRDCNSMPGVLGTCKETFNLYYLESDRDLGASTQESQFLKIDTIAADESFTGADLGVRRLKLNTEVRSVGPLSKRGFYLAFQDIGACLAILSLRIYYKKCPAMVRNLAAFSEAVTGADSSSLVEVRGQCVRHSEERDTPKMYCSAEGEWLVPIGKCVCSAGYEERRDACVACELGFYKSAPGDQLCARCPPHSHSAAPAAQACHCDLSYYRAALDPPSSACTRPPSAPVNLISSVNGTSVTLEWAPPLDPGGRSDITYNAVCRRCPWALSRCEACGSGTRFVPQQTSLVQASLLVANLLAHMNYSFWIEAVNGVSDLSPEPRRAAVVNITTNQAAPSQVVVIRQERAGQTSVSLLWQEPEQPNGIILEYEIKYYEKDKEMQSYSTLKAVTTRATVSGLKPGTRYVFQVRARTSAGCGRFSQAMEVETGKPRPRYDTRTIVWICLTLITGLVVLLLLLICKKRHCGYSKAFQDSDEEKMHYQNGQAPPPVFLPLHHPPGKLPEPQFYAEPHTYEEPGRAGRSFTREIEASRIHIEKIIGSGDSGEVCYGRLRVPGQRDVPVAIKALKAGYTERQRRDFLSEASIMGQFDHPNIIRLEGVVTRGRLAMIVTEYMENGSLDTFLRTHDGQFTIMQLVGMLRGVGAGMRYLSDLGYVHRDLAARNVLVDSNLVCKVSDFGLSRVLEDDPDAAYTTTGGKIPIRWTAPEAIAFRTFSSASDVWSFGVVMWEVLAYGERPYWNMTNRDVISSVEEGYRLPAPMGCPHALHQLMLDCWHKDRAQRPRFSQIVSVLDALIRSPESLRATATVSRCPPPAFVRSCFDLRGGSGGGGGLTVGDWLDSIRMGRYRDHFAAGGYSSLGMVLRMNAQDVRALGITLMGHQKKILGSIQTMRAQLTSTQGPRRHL
# [19] = target: T2, Tyrosine-protein kinase receptor TYRO3 (Homo sapiens) (UniProt Q06418)
# T2 sequence (whole entry): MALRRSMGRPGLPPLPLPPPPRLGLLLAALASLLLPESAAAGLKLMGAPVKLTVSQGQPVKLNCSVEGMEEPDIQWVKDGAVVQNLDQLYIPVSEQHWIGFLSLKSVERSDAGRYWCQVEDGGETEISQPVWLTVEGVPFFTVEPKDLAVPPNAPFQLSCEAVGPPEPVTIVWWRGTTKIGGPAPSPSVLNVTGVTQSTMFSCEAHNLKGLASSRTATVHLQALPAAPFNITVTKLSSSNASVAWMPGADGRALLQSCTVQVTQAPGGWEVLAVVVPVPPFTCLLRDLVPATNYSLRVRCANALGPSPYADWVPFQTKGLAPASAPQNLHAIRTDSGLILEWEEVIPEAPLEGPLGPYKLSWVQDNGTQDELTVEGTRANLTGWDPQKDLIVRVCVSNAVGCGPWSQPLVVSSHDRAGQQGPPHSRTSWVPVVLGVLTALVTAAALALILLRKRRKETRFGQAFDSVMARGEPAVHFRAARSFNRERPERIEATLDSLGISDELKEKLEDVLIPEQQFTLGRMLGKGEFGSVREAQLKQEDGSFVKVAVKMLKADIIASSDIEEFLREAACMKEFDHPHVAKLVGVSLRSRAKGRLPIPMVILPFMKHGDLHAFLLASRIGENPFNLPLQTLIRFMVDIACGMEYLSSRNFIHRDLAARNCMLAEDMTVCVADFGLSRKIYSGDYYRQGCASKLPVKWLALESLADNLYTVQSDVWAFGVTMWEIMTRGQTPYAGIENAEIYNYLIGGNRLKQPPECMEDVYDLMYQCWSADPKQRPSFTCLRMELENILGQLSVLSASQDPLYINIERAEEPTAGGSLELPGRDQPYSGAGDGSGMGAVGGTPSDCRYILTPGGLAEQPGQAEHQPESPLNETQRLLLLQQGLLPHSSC
# Sequence of Serine/threonine-protein kinase LATS2 (Homo sapiens) (Q9NRM7 whole entry): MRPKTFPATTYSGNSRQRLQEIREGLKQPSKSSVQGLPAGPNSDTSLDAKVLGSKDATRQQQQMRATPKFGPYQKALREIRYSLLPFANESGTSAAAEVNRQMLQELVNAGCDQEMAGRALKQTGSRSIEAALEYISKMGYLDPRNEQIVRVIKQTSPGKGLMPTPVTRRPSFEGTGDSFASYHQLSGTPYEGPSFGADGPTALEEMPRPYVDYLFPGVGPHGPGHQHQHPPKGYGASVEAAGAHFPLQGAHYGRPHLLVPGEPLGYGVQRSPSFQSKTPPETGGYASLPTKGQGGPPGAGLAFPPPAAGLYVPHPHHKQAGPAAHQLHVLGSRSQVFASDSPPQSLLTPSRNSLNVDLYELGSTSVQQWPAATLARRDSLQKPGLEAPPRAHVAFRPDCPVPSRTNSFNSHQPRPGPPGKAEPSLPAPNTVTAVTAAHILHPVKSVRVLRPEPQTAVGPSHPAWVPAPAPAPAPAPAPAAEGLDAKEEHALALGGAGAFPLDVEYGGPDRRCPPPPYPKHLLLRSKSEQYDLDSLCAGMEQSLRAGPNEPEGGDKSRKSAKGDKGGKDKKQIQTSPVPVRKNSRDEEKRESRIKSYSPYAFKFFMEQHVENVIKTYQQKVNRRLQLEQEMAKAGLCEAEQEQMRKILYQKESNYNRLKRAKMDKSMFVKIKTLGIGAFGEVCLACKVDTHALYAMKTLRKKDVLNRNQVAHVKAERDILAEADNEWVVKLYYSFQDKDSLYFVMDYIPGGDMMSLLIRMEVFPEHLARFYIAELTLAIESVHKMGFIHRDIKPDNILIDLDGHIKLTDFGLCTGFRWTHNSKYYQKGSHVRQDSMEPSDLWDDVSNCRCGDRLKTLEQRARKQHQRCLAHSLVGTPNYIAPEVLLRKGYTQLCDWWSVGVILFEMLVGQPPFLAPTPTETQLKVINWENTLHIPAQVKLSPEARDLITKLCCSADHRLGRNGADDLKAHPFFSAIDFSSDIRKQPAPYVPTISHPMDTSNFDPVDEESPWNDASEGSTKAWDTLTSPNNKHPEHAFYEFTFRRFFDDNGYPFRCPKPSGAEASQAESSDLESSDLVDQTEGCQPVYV
# Sequence of Mitogen-activated protein kinase 3 (Homo sapiens) (P27361 whole entry): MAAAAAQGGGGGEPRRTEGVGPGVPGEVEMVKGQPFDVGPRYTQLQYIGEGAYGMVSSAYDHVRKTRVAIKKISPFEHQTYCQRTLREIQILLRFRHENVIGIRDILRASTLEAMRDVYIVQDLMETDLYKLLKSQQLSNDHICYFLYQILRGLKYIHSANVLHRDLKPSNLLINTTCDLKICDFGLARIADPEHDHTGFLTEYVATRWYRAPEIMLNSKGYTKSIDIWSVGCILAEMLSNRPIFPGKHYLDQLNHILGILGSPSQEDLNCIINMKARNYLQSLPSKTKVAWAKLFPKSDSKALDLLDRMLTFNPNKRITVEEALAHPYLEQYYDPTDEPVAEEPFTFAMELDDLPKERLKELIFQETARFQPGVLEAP
# Sequence of Tyrosine-protein kinase HCK (Homo sapiens) (P08631 2-526 limits assumed): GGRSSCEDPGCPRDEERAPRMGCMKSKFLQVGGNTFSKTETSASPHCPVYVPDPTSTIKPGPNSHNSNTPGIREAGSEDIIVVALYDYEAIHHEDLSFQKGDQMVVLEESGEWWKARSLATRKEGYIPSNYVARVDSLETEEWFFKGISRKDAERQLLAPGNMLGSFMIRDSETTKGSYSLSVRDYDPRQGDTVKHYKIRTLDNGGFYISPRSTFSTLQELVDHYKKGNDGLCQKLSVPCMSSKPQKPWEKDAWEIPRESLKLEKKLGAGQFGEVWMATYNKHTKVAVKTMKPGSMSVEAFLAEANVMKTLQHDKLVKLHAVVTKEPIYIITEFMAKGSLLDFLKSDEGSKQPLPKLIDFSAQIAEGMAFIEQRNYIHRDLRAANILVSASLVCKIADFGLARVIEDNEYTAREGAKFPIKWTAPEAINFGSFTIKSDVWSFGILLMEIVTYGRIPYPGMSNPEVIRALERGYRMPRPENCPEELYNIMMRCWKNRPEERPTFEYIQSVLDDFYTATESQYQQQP
# Sequence of Epithelial discoidin domain-containing receptor 1 (Homo sapiens) (Q08345 whole entry, the tested form may be a part): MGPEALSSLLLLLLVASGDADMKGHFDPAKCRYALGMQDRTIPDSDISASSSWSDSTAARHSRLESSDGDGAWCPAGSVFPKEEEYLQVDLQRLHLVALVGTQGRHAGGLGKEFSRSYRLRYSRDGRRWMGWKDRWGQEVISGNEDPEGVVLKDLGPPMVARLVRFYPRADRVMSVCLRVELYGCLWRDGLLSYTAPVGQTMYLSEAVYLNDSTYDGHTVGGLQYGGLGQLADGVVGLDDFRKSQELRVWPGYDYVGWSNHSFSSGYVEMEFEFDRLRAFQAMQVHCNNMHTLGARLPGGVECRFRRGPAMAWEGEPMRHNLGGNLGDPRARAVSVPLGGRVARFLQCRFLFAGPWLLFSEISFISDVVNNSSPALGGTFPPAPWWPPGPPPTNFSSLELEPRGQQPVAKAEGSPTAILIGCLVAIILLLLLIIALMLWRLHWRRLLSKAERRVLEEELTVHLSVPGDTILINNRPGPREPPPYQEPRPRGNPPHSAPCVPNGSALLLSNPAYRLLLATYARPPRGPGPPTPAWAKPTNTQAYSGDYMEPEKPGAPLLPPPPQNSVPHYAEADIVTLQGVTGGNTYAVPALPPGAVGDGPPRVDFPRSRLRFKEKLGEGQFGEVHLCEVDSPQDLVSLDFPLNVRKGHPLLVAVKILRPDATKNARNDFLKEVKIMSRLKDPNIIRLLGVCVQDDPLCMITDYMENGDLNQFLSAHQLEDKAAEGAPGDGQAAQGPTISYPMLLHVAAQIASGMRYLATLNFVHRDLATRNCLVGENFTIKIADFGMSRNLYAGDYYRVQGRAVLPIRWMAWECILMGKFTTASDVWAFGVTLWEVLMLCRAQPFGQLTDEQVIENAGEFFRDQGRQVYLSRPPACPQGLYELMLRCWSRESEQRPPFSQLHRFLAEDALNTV
# Sequence of Receptor tyrosine-protein kinase erbB-2 (Homo sapiens) (P04626 whole entry): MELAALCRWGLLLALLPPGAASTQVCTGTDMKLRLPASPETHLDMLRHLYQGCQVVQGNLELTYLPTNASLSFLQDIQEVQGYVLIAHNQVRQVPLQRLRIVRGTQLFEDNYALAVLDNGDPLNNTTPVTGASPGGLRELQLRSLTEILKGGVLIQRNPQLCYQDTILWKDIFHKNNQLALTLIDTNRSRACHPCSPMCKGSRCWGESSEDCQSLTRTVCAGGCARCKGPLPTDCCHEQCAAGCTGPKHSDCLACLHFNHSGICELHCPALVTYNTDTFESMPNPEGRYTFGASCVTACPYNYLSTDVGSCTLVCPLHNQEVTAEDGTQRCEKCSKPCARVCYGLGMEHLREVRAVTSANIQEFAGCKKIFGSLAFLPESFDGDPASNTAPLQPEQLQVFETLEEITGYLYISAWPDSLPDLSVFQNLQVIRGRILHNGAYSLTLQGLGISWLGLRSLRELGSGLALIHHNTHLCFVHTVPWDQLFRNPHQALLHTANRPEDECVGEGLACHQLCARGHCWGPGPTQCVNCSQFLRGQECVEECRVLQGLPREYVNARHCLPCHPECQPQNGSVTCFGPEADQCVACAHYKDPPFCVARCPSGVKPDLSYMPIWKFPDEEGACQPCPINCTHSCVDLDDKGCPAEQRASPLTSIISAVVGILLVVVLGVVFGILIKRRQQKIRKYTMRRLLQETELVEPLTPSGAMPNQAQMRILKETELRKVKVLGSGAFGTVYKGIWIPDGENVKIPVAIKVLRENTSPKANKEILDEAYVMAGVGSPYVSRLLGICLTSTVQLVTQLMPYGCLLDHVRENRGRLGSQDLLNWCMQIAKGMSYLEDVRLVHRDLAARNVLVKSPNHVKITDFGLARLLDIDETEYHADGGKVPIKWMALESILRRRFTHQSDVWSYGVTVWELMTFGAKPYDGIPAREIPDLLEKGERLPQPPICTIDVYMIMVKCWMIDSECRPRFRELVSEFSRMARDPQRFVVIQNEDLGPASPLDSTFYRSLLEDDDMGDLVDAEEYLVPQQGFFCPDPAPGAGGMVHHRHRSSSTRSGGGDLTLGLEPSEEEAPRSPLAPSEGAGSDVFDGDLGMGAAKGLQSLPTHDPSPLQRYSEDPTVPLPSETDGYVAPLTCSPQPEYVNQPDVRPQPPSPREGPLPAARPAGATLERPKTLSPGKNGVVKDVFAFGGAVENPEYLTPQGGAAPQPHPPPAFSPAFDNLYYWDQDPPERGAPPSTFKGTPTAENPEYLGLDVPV
# Sequence of Cyclin-dependent kinase 9 (Homo sapiens) (P50750 whole entry): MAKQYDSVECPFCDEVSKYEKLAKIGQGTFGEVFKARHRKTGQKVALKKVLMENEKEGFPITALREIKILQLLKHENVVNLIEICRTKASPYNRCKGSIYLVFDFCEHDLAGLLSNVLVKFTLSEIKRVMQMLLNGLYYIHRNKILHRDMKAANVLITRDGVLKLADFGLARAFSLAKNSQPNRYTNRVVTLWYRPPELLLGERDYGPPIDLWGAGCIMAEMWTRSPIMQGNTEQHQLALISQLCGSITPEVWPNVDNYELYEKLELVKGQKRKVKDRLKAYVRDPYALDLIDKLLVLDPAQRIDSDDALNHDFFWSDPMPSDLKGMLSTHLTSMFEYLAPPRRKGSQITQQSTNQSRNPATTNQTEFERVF
# Sequence of Serine/threonine-protein kinase pim-2 (Homo sapiens) (Q9P1W9 whole entry, looked up): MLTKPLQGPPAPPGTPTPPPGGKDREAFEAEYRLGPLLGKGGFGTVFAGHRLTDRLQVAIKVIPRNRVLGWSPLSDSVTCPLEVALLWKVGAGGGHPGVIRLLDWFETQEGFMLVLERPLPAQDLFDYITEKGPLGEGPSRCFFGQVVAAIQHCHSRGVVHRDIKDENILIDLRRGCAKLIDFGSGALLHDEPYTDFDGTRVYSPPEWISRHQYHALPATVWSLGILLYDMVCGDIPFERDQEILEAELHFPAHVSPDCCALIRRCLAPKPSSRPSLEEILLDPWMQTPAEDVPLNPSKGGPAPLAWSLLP
Structure (SMILES),residual activity [1] [%],residual activity [2] [%],residual activity [3] [%],residual activity [4] [%],residual activity [5] [%],residual activity [6] [%],residual activity [7] [%],residual activity [8] [%],residual activity [9] [%],residual activity [10] [%],residual activity [11] [%],residual activity [12] [%],residual activity [13] [%],residual activity [14] [%],residual activity [15] [%],residual activity [16] [%],residual activity [17] [%],residual activity [18] [%],residual activity [19] [%]
CN(C)C(=O)Cn1cc(-c2nc(C3(c4ccc(-c5cnc(N)nc5)cc4)CC3)no2)cn1 [BI 0153],83,65,100,100,100,100,100,82,100,100,79,82,80,46,100,100,86,87,83
CN(C)C(=O)Cn1cc(-c2nc([C@@](C)(c3ccc(-c4cnc(N)nc4)cc3)C3CC3)no2)cn1 [BI 665915],96,73,99,76,100,100,79,89,100,100,100,58,100,74,96,89,90,100,100
